Reference: patent US20110064694A1, “ANTI-HEPATITIS C ACTIVITY OF MESO-TETRAKIS-PORPHYRIN ANALOGUES” (YALE UNIVERSITY, priority 2009, published 2011)
Where two headings read alike, the source gives them in different places.

Tests used:
[1] = tested on: HCV genotype 1b (Con 1 isolate) subgenomic replicon; test: microbe, parasite or virus in culture; assay type: cell-based, Hepatitis C virus
Method: Cells. HCV genotype 1b (Con 1 isolate) subgenomic replicon cell line with luciferase reporter (Huh-luc/neo-ET) was kindly provided by Ralf Bartenschlager from the University of Heidelberg (37). Huh-luc/neo-ET cells were cultured in Dulbecco's modified Eagle medium (DMEM , supplemented with 10% fetal bovine serum (FBS), 1 mM nonessential amino acids, and 250 μg/ml of G418 (Invitrogen). Genotype 2a (JFH-I isolate) subgenomic replicon cells YSGR-JFH were cultured in DMEM containing 10 To fetal calf serum, 1 mM nonessential amino acids and 400 μg/ml G418 (31). An additional genotype 1b (Conl) replicon cell line (4291BBix) was cultured in similar media but with 3 μg/ml blasticidin (22).
(§1) Determination of antiviral activities. Ff-luciferase reporter activity was used to monitor the replication of HCV replicons in Huhluc/neo-ET cells free from G418. Replicon cells were seeded at the density of 5×10^3 cells per well in 96-well plates. The following day, replicon cells were incubated in duplicates with DMSO or serially diluted tetraphenylporphyrin (TPP) analogues at 37″C. 72 hrs after co-incubation, cells were lysed with ice-cold passive lysis reagent after PBS wash, and the luciferase activity was measured with the luciferase assay kit (Promega) and Tecan FARCyte luminometer (GE Healthcare) following the manufacturers' descriptions. The relative light units (RLU) were adjusted as percentage readings of the compound-free controls and the 50% effective concentration (EC50) was determined from dose-effect curve by nonlinear regression analysis using Origin 6.1 (OriginLab Software). TPP analogues were also screened in vitro against HIV-I IIIB and HBV as previously described (26,41). Briefly 1×10^3 MT-2 cells per well were exposed in triplets to 0.1TC1D50/cell (50% of the tissue culture infectious dose) of HIV-1 IIIB and cultured in the presence of compounds. The EC50 values were estimated by MTT-based colorimetric quantitation of viral CPE after 5 days. Anti-HBV activities were evaluated in 2.2.15 cells by means of Southern DNA hybridization.

[2] = tested on: HIV-1 IIIB; test: Anti-HIV activity in MT-2 cells, MTT quantitation of viral CPE; assay type: cell-based; conditions: MT-2 cells, 5 days; read-out: Antiviral Activity EC50 HIV-1 IIIB
Method: as §1

[3] = tested on: MT-2 cells; test: Cytotoxicity in uninfected MT-2 cells; assay type: cell-based; conditions: uninfected MT-2 cells, 5 days; read-out: Cytotoxicity CC50 MT-2
Method: (§2) Determination of cytotoxicity and mitochondrial DNA toxicity. Exponentially growing Huh-7 cells were seeded at a density of 1×10^4 cells per well in a 24-well plate and incubated with TPP analogues for 3 days. Cells were fixed and stained with 0.5% methylene blue in 50% ethanol followed by extensive washing. After the plates were air dried, cells were solubilized in 1% sarkosyl and cell growth was determined from the extent of absorption by spectrophotometric measurements at 595 nm (Biotek Instruments). For compounds whose dark color interfered with 595-nm reading, cytotoxicity was measured by the CellTiter-Glo luminesecent cell viability assay following manufacturer's description (Promega). Cytotoxicity in MT-2 cells was determined from colorimetric quantitation of uninfected MT-2 cells after 5 days of coincubation.

[4] = tested on: Huh-7 cells; test: Cytotoxicity in Huh-7 cells (methylene blue or CellTiter-Glo); assay type: cell-based; conditions: Huh-7 cells, 3 days; read-out: Cytotoxicity CC50 Huh-7
Method: as §2

[5] = tested on: HCV genotype 1b (Con1) replicon; test: Effect of serum concentration on anti-HCV activity, luciferase assay in Huh-luc/neo-ET cells; assay type: cell-based, Hepatitis C virus; conditions: for EC50: 72 hrs
Method: Cells were harvested after 72 hrs for luciferase activity assays.
Huh-luc/neo-ET cells were incubated with compound 1, 4 or 6 for 72 hrs and the anti-HCV activity was evaluated by measuring the reduction of reporter luciferase activities.

[6] = tested on: mitochondrial potential of Huh-luc/neo-ET cells; conditions: up to 1 M for 9 days, compared with mock-treated control
Method: We treated Huh-luc/neo-ET cells with up to 1 µM of compound 6 for 9 days, during which the media were replenished every 3 days and the cells were passaged once. Live cells were stained with the ratiometric indicator JC-1 (Invitrogen) in order to measure the mitochondrial potential using confocal microscopy.

[7] = tested on: CEM cells; test: Cytotoxicity in CEM cells; conditions: read-out: Cytotoxicity CC50 CEM

For O=C(O)c1cc(C(=O)O)cc(-c2ccc(-c3c4nc(c(-c5ccc(-c6cc(C(=O)O)cc(C(=O)O)c6)cc5)c5ccc([nH]5)c(-c5ccc(-c6cc(C(=O)O)cc(C(=O)O)c6)cc5)c5nc(c(-c6ccc(-c7cc(C(=O)O)cc(C(=O)O)c7)cc6)c6ccc3[nH]6)C=C5)C=C4)cc2)c1 [Compound 6, Meso-teftakis-(3,5-dicarboxy-4,4′-biphenyl)porphyrin], which “selective index in culture (CC50/EC50)” value ([1]; CC50 in naïve Huh-7 cells / EC50) is on record?
Its value is “over 2000”.

What about the EC50 ([1]; HCV replicons in vitro, read-out: anti-HCV EC50) of the same compound?
The EC50 was 24 nM.

What about the EC50 ([1]; Huh-luc/neo-ET, 72 hrs, luciferase, read-out: Antiviral Activity EC50 HCV) of the same compound?
The EC50 was 24 ± 5.1 nM.

What about the EC50 ([1]; Table 3, metal M in porphyrin core, read-out: EC50 anti-HCV activity, metallation of porphyrin core of compound 6) of the same compound?
The EC50 was 19 ± 5.2 nM.

And the “improvement in anti-HCV EC50 over compound 2” value ([1]; relative to lead compound 2)?
The value was 75 fold.

What about the EC50 ([1]; unit inferred, read-out: EC50 against HCV genotype 1b Conl replicons) of the same compound?
The EC50 was 24 ± 5 nM.

What about the EC50 [2] of the same compound?
Its EC50 is 3670 ± 1220 nM.

And the CC50 [3]?
Its CC50 is 18000 ± 4240 nM.

And the CC50 [4]?
The CC50 was over 50000 nM.

What about the EC50 ([5]; 5% FBS, read-out: EC50 5% FBS) of the same compound?
Its EC50 is 13 ± 3 nM.

What about the EC50 ([5]; 40% FBS, read-out: EC50 40% FBS) of the same compound?
Its EC50 is 69 ± 11 nM.

What about the “Fold Change in EC50 5% FBS” value ([5]; EC50 at 5% FBS as one fold) of the same compound?
The value was 1.00.

What about the EC50 ([5]; extrapolation of the plot of EC50 vs serum amount, read-out: EC50 0% FBS (Theoretical)) of the same compound?
The EC50 was 6.5 nM.

What about the EC50 ([5]; read-out: EC50 10% FBS, 10% FBS) of the same compound?
The EC50 was 24 ± 5 nM.

What about the EC50 ([5]; read-out: EC50 20% FBS, 20% FBS) of the same compound?
Its EC50 is 39 ± 5 nM.

And the “Fold Change in EC50 10% FBS” value ([5]; relative to EC50 at 5% FBS)?
The value was 1.92 ± 0.22.

And the “Fold Change in EC50 20% FBS” value ([5]; relative to EC50 at 5% FBS)?
Its value is 3.20 ± 0.96.

And the “Fold Change in EC50 40% FBS” value ([5]; relative to EC50 at 5% FBS)?
Its value is 5.56 ± 0.85.

What about the “effect on mitochondrial potential” value [6] of the same compound?
Its value is “did not affect the mitochondrial potential”.

And the CC50 [7]?
Its CC50 is over 50000 nM.
